Laboratory results taken from ChEMBL document CHEMBL5465560, “Selectivity Literature for EUbOPEN Chemogenomic Library” (2024).

Legend:
[1] = molecular target: T1, Muscarinic acetylcholine receptor M1 (Homo sapiens) (UniProt P11229); test: Selectivity interaction (Eurofins Cerep-Panlabs Safety Screen 44 (GPCRS, Transporters, Ion Channels, Nuclear Receptors, other enzymes)) EUB0000878a CHRM1; settings: at 10 µM
T1 sequence (whole entry): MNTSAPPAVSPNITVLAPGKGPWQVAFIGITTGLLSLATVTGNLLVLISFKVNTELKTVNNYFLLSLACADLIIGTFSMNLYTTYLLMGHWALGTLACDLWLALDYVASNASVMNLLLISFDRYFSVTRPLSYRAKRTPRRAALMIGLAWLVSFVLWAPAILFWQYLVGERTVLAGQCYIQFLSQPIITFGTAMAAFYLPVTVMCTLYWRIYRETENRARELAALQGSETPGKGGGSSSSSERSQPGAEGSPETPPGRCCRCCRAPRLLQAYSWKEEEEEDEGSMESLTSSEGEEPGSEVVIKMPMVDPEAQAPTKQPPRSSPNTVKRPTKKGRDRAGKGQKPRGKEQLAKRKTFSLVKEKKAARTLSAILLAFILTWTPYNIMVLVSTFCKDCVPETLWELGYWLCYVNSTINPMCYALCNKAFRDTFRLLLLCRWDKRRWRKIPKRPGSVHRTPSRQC

[2] = molecular target: T2, Muscarinic acetylcholine receptor M2 (Homo sapiens) (UniProt P08172); test: Selectivity interaction (Eurofins Cerep-Panlabs Safety Screen 44 (GPCRS, Transporters, Ion Channels, Nuclear Receptors, other enzymes)) EUB0000878a CHRM2; settings: at 10 µM
T2 sequence (whole entry): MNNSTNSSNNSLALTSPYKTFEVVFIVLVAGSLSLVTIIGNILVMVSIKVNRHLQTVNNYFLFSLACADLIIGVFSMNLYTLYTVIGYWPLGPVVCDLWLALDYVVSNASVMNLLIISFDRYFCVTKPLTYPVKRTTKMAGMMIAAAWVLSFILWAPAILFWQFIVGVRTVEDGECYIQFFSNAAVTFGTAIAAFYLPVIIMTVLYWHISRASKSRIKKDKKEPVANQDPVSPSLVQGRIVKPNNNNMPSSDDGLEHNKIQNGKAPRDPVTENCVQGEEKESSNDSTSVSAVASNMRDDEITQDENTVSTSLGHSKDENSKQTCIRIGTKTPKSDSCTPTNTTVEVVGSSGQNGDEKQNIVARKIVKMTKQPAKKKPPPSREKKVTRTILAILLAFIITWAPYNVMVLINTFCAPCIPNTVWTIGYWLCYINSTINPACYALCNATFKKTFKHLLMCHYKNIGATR

[3] = molecular target: Muscarinic acetylcholine receptor M3 (Homo sapiens, UniProt P20309); test: Selectivity interaction (Eurofins Cerep-Panlabs Safety Screen 44 (GPCRS, Transporters, Ion Channels, Nuclear Receptors, other enzymes)) EUB0000878a CHRM3; settings: at 10 µM
Chain of Muscarinic acetylcholine receptor M3 (P20309 whole entry, looked up): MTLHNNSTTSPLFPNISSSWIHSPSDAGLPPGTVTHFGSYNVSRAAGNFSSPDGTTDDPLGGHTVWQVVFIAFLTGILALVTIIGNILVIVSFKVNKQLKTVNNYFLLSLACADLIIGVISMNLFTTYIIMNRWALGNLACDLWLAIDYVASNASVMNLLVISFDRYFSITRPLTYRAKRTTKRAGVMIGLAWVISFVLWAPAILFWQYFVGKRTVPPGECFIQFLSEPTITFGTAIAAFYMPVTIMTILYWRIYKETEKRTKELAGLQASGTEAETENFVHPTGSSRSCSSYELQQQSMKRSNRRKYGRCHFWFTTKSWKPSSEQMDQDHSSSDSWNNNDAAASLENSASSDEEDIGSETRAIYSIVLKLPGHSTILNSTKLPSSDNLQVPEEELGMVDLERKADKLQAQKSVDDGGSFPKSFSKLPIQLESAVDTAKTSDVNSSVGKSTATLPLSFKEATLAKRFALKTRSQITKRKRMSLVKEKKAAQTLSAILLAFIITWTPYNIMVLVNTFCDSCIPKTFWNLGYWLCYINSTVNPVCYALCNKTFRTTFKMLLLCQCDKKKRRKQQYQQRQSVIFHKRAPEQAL

[4] = molecular target: T3, Dual specificity mitogen-activated protein kinase kinase 5 (Homo sapiens) (UniProt Q13163); test: Selectivity interaction (KinomeScan (DiscoverX)) EUB0000878a MAP2K5; settings: at 1 µM
T3 sequence (whole entry): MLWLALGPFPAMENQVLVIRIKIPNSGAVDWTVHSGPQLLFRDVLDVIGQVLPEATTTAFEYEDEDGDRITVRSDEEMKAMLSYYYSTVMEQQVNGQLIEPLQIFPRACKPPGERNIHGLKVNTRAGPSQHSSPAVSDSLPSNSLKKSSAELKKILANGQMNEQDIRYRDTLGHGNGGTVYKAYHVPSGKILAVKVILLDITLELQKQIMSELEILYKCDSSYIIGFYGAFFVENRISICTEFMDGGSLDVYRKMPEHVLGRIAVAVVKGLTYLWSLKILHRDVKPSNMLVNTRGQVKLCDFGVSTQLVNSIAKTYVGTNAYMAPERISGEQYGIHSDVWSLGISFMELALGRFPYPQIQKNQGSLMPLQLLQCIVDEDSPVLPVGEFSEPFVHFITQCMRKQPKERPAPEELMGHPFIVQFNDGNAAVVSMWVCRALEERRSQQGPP

[5] = molecular target: Mitogen-activated protein kinase kinase kinase 11 (Homo sapiens) (UniProt Q16584); test: Selectivity interaction (KinomeScan (DiscoverX)) EUB0000878a MAP3K11; settings: at 1 µM
Chain of Mitogen-activated protein kinase kinase kinase 11 (Homo sapiens) (Q16584 whole entry, looked up): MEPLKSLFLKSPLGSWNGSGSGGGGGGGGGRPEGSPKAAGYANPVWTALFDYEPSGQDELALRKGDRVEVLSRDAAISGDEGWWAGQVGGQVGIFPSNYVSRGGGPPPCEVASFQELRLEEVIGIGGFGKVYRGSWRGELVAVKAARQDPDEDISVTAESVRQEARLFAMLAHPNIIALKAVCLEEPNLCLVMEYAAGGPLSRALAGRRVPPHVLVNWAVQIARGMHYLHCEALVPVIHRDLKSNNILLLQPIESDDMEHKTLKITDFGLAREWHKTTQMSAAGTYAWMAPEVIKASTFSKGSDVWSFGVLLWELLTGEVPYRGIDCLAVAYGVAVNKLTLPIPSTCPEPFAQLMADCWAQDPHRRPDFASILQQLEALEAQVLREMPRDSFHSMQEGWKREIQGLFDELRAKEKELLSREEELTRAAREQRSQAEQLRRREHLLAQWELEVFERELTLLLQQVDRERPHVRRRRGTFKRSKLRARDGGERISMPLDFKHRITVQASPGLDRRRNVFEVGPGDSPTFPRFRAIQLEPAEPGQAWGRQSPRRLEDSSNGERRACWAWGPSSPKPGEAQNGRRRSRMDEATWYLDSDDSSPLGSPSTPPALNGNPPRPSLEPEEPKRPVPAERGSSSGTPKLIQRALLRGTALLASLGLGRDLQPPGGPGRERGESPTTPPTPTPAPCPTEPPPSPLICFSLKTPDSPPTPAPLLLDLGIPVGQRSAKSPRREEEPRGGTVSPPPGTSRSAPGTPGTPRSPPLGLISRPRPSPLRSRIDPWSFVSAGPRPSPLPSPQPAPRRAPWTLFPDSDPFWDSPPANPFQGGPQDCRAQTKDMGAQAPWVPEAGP

[6] = molecular target: Phosphatidylinositol 4-phosphate 5-kinase type-1 gamma (Homo sapiens) (UniProt O60331); test: Selectivity interaction (KinomeScan (DiscoverX)) EUB0000878a PIP5K1C; settings: at 1 µM
Chain of Phosphatidylinositol 4-phosphate 5-kinase type-1 gamma (Homo sapiens) (O60331 whole entry): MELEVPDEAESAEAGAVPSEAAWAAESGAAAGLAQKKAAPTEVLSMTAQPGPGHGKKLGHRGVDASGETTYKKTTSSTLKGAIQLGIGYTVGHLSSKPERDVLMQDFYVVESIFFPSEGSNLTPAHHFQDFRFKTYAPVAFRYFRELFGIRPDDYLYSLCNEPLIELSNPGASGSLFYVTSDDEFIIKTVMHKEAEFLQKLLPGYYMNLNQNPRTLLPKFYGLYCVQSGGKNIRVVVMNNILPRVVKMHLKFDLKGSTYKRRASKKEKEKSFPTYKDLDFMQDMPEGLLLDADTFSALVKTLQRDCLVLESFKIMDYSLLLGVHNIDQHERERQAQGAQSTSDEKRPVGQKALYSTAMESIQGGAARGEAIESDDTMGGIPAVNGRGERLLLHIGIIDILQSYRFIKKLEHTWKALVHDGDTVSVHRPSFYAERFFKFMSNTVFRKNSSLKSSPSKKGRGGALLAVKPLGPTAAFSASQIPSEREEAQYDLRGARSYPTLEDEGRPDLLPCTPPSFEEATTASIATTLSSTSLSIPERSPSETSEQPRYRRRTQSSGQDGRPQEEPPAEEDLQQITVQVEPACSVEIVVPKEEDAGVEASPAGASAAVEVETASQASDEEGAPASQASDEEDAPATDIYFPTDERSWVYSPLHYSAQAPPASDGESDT

[7] = molecular target: T4, Receptor-interacting serine/threonine-protein kinase 4 (Homo sapiens) (UniProt P57078); test: Selectivity interaction (KinomeScan (DiscoverX)) EUB0000878a RIPK4; settings: at 1 µM
T4 sequence (whole entry): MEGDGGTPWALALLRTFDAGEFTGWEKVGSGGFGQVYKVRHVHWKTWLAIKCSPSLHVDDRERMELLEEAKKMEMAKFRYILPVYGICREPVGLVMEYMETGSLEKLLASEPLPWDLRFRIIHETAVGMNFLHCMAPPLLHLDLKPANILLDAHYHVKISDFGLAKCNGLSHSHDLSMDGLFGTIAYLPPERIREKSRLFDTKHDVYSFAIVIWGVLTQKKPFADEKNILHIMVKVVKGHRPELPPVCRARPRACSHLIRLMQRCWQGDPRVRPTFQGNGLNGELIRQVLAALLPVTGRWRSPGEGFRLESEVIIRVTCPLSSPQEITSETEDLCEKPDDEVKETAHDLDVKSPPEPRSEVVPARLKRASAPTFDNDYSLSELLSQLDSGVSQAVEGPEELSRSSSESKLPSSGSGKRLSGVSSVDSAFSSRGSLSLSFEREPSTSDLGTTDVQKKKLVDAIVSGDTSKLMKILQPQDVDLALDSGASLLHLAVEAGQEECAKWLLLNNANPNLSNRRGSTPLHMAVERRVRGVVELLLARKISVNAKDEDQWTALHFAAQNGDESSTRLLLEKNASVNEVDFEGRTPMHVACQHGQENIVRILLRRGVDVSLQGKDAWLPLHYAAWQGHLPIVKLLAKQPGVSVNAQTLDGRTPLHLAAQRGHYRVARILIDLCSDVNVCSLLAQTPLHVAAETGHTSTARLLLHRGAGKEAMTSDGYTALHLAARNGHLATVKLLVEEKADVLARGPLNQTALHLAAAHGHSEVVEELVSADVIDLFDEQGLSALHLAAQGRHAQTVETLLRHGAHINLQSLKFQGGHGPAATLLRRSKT

[8] = molecular target: Sodium-dependent noradrenaline transporter (Homo sapiens, UniProt P23975); test: Selectivity interaction (Eurofins Cerep-Panlabs Safety Screen 44 (GPCRS, Transporters, Ion Channels, Nuclear Receptors, other enzymes)) EUB0000878a SLC6A2; settings: at 10 µM
Chain of Sodium-dependent noradrenaline transporter (P23975 whole entry): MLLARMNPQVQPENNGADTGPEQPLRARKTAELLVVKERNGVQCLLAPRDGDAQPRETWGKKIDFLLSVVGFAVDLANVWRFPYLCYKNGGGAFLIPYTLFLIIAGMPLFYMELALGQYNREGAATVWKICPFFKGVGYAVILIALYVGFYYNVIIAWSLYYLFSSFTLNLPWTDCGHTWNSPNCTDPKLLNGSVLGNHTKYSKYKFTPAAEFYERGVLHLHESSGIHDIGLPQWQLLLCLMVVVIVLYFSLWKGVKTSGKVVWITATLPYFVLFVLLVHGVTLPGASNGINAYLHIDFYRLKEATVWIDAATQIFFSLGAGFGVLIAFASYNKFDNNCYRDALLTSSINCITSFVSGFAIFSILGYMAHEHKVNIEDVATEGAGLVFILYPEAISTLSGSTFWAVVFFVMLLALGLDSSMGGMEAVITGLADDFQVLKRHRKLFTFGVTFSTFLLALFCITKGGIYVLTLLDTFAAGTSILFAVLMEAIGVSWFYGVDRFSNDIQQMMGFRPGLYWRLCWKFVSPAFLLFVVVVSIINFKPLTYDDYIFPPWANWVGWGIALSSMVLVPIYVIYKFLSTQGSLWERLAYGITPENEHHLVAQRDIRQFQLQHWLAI

[9] = molecular target: Sodium-dependent dopamine transporter (Homo sapiens, UniProt Q01959); test: Selectivity interaction (Eurofins Cerep-Panlabs Safety Screen 44 (GPCRS, Transporters, Ion Channels, Nuclear Receptors, other enzymes)) EUB0000878a SLC6A3; settings: at 10 µM
[10] = molecular target: T5, Alpha-1B adrenergic receptor (Homo sapiens) (UniProt P35368); test: Selectivity interaction (GPCR panel (PDSP screen)) EUB0001066a ADRA1B; settings: at 10 µM
T5 sequence (whole entry): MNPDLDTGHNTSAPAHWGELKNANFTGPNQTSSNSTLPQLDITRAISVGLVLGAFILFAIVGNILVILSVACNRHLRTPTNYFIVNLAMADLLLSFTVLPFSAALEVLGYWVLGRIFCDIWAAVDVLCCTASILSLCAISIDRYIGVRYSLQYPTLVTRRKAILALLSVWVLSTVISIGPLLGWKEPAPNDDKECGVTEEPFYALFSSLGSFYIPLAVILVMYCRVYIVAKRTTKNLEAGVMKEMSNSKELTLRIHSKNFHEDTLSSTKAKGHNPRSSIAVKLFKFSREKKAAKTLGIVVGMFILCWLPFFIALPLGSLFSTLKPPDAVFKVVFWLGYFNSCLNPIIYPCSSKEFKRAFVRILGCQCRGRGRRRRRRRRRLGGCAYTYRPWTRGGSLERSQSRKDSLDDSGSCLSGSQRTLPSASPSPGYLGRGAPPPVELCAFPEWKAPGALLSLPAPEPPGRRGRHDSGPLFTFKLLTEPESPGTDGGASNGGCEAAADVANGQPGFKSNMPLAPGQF

[11] = molecular target: 5-hydroxytryptamine receptor 1E (Homo sapiens) (UniProt P28566); test: Selectivity interaction (GPCR panel (PDSP screen)) EUB0001066a HTR1E; settings: at 10 µM
Chain of 5-hydroxytryptamine receptor 1E (Homo sapiens) (P28566 whole entry): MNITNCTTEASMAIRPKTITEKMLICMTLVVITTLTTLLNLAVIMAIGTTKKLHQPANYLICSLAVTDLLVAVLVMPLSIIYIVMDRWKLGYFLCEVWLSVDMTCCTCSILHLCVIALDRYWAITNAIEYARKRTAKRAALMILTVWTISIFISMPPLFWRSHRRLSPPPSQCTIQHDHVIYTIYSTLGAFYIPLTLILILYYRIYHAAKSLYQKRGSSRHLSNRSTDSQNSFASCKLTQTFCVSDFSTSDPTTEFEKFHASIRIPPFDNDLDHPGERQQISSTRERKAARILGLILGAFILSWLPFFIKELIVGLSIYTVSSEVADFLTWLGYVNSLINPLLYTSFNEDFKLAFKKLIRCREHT

[12] = molecular target: T6, 5-hydroxytryptamine receptor 2C (Homo sapiens) (UniProt P28335); test: Selectivity interaction (GPCR panel (PDSP screen)) EUB0001066a HTR2C; settings: at 10 µM
T6 sequence (whole entry): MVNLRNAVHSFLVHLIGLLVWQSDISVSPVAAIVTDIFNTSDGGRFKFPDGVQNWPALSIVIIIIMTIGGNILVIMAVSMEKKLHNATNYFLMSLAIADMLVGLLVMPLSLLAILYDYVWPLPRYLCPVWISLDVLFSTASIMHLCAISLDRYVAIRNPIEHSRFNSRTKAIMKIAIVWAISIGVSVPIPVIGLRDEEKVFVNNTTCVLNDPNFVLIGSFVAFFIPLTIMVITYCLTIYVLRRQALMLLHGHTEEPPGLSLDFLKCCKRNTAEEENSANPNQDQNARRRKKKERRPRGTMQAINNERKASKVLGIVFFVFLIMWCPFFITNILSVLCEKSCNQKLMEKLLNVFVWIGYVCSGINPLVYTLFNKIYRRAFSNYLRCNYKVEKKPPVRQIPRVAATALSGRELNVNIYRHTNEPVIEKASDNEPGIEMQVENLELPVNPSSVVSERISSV

[13] = test system: Mast/stem cell growth factor receptor Kit (Homo sapiens), P10721 [UNDEFINED MUTATION]; test: Selectivity interaction (KinomeScan (DiscoverX)) EUB0001066a KIT; settings: at 1 µM
Chain of Mast/stem cell growth factor receptor Kit (Homo sapiens), P10721 [UNDEFINED MUTATION] (P10721 whole entry, looked up, change not shown): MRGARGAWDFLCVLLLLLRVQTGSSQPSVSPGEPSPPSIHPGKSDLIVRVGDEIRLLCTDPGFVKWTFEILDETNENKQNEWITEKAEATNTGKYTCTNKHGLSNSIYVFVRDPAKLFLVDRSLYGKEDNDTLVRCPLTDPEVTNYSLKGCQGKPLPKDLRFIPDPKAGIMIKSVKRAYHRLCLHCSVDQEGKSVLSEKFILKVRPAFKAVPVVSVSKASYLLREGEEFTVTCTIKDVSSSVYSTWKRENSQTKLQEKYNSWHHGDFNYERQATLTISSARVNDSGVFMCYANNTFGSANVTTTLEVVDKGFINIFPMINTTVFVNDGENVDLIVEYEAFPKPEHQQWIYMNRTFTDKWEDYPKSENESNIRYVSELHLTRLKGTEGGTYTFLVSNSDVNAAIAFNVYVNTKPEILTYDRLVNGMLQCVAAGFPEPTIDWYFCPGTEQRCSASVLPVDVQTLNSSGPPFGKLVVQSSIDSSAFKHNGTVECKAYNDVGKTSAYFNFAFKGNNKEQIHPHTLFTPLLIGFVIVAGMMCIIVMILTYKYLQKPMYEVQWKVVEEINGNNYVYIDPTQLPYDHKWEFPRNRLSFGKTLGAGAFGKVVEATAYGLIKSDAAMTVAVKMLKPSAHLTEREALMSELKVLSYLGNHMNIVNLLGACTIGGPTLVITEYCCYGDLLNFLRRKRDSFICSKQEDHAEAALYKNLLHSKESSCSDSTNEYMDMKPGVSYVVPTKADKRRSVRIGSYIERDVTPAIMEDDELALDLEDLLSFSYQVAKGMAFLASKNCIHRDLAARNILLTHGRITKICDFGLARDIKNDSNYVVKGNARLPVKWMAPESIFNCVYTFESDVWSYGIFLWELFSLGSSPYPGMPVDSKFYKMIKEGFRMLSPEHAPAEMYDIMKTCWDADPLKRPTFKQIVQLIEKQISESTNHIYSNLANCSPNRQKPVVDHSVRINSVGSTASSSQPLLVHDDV

[14] = molecular target: T7, Serine/threonine-protein kinase NLK (Homo sapiens) (UniProt Q9UBE8); test: Selectivity interaction (KinomeScan (DiscoverX)) EUB0001066a NLK; settings: at 1 µM
T7 sequence (whole entry): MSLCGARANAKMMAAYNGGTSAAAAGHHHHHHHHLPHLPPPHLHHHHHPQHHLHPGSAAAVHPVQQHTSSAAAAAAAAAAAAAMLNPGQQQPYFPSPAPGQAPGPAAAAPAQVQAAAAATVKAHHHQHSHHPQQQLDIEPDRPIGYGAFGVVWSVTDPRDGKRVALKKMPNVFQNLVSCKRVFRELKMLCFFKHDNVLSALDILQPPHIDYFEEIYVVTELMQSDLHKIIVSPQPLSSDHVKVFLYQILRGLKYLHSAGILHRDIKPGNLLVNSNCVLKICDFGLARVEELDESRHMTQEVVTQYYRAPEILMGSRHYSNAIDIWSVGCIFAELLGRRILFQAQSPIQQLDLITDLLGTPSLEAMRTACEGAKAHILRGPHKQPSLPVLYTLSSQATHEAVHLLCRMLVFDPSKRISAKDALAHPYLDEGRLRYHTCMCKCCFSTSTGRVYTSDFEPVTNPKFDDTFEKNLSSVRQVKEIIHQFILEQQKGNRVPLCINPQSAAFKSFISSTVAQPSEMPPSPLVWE

[15] = molecular target: Serine/threonine-protein kinase pim-2 (Homo sapiens, UniProt Q9P1W9); test: Selectivity interaction (KinomeScan (DiscoverX)) EUB0001066a PIM2; settings: at 1 µM
Chain of Serine/threonine-protein kinase pim-2 (Q9P1W9 whole entry, looked up): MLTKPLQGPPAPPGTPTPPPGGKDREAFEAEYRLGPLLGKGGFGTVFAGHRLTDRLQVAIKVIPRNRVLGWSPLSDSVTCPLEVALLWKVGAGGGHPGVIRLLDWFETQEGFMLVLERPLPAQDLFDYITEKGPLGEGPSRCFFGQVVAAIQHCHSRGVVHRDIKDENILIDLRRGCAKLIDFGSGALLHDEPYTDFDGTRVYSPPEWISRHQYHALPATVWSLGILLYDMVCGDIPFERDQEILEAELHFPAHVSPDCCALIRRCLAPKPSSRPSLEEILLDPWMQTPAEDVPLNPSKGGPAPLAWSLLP

[16] = molecular target: Serine/threonine-protein kinase VRK2 (Homo sapiens) (UniProt Q86Y07); test: Selectivity interaction (KinomeScan (DiscoverX)) EUB0001066a VRK2; settings: at 1 µM
Chain of Serine/threonine-protein kinase VRK2 (Homo sapiens) (Q86Y07 whole entry): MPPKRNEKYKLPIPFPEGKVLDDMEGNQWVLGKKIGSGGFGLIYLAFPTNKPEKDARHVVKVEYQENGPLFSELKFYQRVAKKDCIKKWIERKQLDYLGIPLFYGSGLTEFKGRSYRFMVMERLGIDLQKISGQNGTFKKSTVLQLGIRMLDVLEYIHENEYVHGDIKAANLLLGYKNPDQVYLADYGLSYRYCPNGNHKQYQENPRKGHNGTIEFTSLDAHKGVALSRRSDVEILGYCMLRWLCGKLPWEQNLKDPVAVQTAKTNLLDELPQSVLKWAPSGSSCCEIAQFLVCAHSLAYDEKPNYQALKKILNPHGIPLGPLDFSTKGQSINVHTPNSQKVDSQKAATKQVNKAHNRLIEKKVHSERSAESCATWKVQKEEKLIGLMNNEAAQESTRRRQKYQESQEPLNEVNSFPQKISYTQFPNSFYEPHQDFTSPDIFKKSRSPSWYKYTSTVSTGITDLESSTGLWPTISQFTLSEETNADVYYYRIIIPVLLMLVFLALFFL

% of control [4] | % of control [5] | % of control [6] | % of control [7] | % of inhibition [10] | % of inhibition [11] | % of inhibition [12] | % of control [13] | % of control [14] | % of control [15] | % of control [16] | Structure (SMILES) | % of inhibition or stimulation [1] | % of inhibition or stimulation [2] | % of inhibition or stimulation [3] | % of inhibition or stimulation [8] | % of inhibition or stimulation [9]
4.5% | 99% | 0% | 0.95% |  |  |  |  |  |  |  | CC(C)c1cc(Nc2nc(N3CCC[C@H](N)C3)ncc2C(N)=O)cc(C(C)C)n1 | 84% | 70% | 84% | 87% | 100%
 |  |  |  | 30.2% | 31.8% | 31.1% | 41% | 41% | 0% | 29% | Cc1nccc(COC(=O)N2C[C@@H]3[C@@H](CNC(=O)c4ccc5[nH]nnc5c4)[C@@H]3C2)n1 |  |  |  |  | 
